Assay results reported in patent US11078214B2, “Monocyclic thieno, pyrido, and pyrrolo pyrimidine compounds and methods of use and manufacture of same” (Duquesne University of the Holy Spirit, priority 2015, dated 2021).
Like-named read-outs stand apart in the source and are kept apart here. One block for each compound: values may come before it.

Legend:
[1] = system: KB human tumor cells (RFC/FRα/PCFT); test: Growth inhibition of KB human tumor cells; type: cell-based
Text: The experiments with the CHO sublines were extended to KB human nasopharyngeal carcinoma cells which express highly elevated FRα, along with RFC and PCFT.

D4 CHO cells (FRβ) = test: Growth inhibition of CHO subline D4 expressing FRβ; type: cell-based, Chinese hamster
RT16 CHO cells (FRα) = test: Growth inhibition of CHO subline RT16 expressing human FRα; type: cell-based, Chinese hamster
[2] = system: PC43-10 CHO cells (human RFC); test: Growth inhibition of CHO subline PC43-10 expressing human RFC; type: cell-based, Chinese hamster
SK-OV-3 MDR-1-6/6 = test: cells; type: cell-based, human
MDA-MB-435 cancer cells = test: Antiproliferative sulforhodamine B (SRB) assay in MDA-MB-435 cells; type: cell-based, human
cellular microtubules = test: Cellular microtubule depolymerization (Section V); type: cell-based; conditions: Section V Table 2; bare values under μM head, EC50/IC50 ratio implies nM
HeLa = test: Antiproliferative SRB assay, parental HeLa; type: cell-based, human
Text: (§1) A second clinically relevant mechanism of drug resistance to these microtubule agents is the expression of βIII isotype of tubulin. […] The WT βIII cell line was generated from HeLa cells transfected with the gene for/III-tubulin.

purified tubulin = test: Inhibition of the assembly of purified tubulin; type: biochemical; conditions: Section V Table 3; read-out: Inhibition of tubulin assembly IC50 (μM) ± SD
SK-OV-3 = test: Antiproliferative SRB assay, parental SK-OV-3; type: cell-based, human
A-10 cells = test: Cellular microtubule depolymerization (loss of cellular microtubules) in A-10 cells; type: cell-based
[3] = system: tubulin (colchicine site); test: Inhibition of [3H]colchicine binding to tubulin; conditions: 1 μM inhibitor
hDHFR = hDHFR (Homo sapiens (Human), UniProt P00374); test: Inhibition of recombinant hDHFR; type: biochemical; conditions: Section I Table 3; 37° C., 18 μM dihydrofolic acid; title says μM, head nM; read-out: Human DHFR
Chain of hDHFR (P00374 whole entry): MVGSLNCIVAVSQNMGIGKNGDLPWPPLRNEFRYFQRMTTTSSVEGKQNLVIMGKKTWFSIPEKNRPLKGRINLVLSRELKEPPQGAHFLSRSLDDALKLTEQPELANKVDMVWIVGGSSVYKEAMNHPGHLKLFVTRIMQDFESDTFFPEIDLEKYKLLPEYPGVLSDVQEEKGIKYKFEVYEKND

recombinant pjDHFR [4] = molecular target: T1, recombinant pjDHFR (Pneumocystis jirovecii (Human pneumocystis pneumonia agent), UniProt Q9UUP5); conditions: Section I Table 3
recombinant pjDHFR [5] = molecular target: T1, recombinant pjDHFR; conditions: Section I Table 1; cited from earlier work
[6] = system: R2/PCFT4 CHO cells (PCFT); test: Growth inhibition of CHO subline R2/PCFT4 expressing human PCFT; type: cell-based, Chinese hamster; conditions: Cricetulus griseus
WT βIII cell line = test: Antiproliferative SRB assay, WT βIII (HeLa transfected with βIII-tubulin); type: cell-based; conditions: Homo sapiens
Text: as §1

[7] = system: R2 CHO cells (transporter-null); test: Growth inhibition of transporter-null R2 CHO cells; type: cell-based, Chinese hamster; conditions: Cricetulus griseus
[8] = R2/PCFT4, Section VI Table 1, read-out: PCFT (nM) R2/PCFT4 IC50
[9] = Section III Table 1, R2/PCFT4, read-out: PCFT4 (nM) PCFT IC50
[10] = Homo sapiens, Section III Table 1, read-out: KB (nM) RFC/FRα/PCFT IC50
[11] = Homo sapiens, Section VI Table 1, read-out: FRα/PCFT/RFC (nM) KB IC50
[12] = Cricetulus griseus, CHO, Section III Table 1, read-out: D4 (nM) FRβ IC50
[13] = Cricetulus griseus, CHO, Section VI Table 1, read-out: FRβ (nM) D4 IC50
[14] = Cricetulus griseus, RT16, Section III Table 1, read-out: RT16 (nM) FRα IC50
[15] = Cricetulus griseus, RT16, Section VI Table 1, read-out: FRα (nM) R16 IC50
[16] = Homo sapiens, PC43-10, Section III Table 1, read-out: PC43-10 (nM) RFC IC50
[17] = Homo sapiens, PC43-10, Section VI Table 1, read-out: RFC (nM) PC43-10 IC50
[18] = Section III Table 1, read-out: R2 (nM) Null IC50
[19] = Section VI Table 1, read-out: R2 IC50
[20] = Rattus norvegicus, A10, Section II Table 1, 50% loss of cellular microtubules, read-out: Microtubule depolymerization (A-10 cells) EC50 ± SD

IC50 ([1]; Section IV Table 1, +FA, read-out: KB (+FA) IC50): > 1000 nM
IC50 ([1]; Section IV Table 1, read-out: RFC/FRα/PCFT KB IC50): 1.8 nM
SMILES: Nc1nc2[nH]c(CCCc3ccc(C(=O)N[C@@H](CCC(=O)O)C(=O)O)cc3)cc2c(=O)[nH]1 [AGF17, reference compound]
IC50 (D4 CHO cells (FRβ); Section IV Table 1, +FA, read-out: FRβ D4 (+FA) IC50): > 1000 nM
IC50 (D4 CHO cells (FRβ); Section IV Table 1, read-out: FRβ D4 IC50): 2.7 nM
IC50 (RT16 CHO cells (FRα); Section IV Table 1, +FA, read-out: FRα RT16 (+FA) IC50): > 1000 nM
IC50 (RT16 CHO cells (FRα); Section IV Table 1, read-out: FRα RT16 IC50): 3.2 nM
IC50 ([2]; Section IV Table 1, spread in parentheses, read-out: RFC PC43-10 IC50): 648 nM

SMILES: COc1ccc(/C=C\c2cc(OC)c(OC)c(OC)c2)cc1O [CA4, Combretastatin A-4, reference compound]
IC50 (SK-OV-3 MDR-1-6/6; Pgp overexpressing cell line, SRB, n = 3, read-out: SK-OV-3 MDR-1-6/6 IC50 ± SD): 6.6 ± 1.3 nM
IC50 (MDA-MB-435 cancer cells; Section II Table 1, SRB assay, read-out: MDA-MB-435 IC50 ± SD): 3.4 ± 0.6 nM
IC50 (MDA-MB-435 cancer cells; Section V Table 2, read-out: IC50 MDA-MB-435): 4.4 ± 0.46 nM
IC50 (MDA-MB-435 cancer cells; Section VIII Table 1, read-out: IC50 ± SD (MDA-MB-435) nM cancer cells): 3.4 ± 0.6 nM
EC50 (cellular microtubules): 9.8 µM
IC50 (HeLa; parental HeLa, read-out: HeLa IC50 ± SD): 4.7 ± 0.2 nM
EC50 (A-10 cells; Section II Table 1, nM, read-out: Microtubule depolymerization (A-10 cells) EC50): 13 nM
EC50 (A-10 cells; Section VIII Table 1, read-out: EC50 (nM) in A-10 cells (Loss of cellular microtubules)): 13 nM
Inhibition of colchicine binding % Inhibition ± SD [3]: 85 ± 3%

SMILES: Cc1nc(N)nc2ccc(Nc3cc(F)c(F)c(F)c3)nc12 [Compound A]
IC50 (hDHFR): 3.1 µM
Hu/Pj selectivity ratio (recombinant pjDHFR [4]): 3.5
IC50 (recombinant pjDHFR [4]; read-out: DHFR Pj, 37° C., 18 μM dihydrofolic acid, title says μM, head nM): 0.87 µM
Hu/Pj selectivity ratio (hDHFR/pjDHFR) (recombinant pjDHFR [5]): 3.5

SMILES: COc1cc(NCc2ccc3nc(N)nc(N)c3c2C)cc(OC)c1OC [TMQ, trimetrexate]
Hu/Pj selectivity ratio (hDHFR/pjDHFR) (recombinant pjDHFR [5]): 0.1

SMILES: COc1ccc(N(C)c2nc(C)nc3cc[nH]c23)cc1 [compound 1]
IC50 [6, 8]: 3.64 nM
IC50 [6, 9]: 213 nM
IC50 [1, 10]: 1.9 nM
IC50 [1, 11]: 0.2 nM
IC50 (WT βIII cell line; HeLa transfected with βIII-tubulin, read-out: WT βIII IC50 ± SD): 186 ± 21 nM
IC50 (D4 CHO cells (FRβ); [12]): 10 nM
IC50 (D4 CHO cells (FRβ); [13]): 0.2 nM
IC50 (HeLa; Homo sapiens, parental HeLa, read-out: HeLa IC50 ± SD): 270 ± 26 nM
IC50 (RT16 CHO cells (FRα); [14]): 6.3 nM
IC50 (RT16 CHO cells (FRα); [15]): 0.19 nM
IC50 [2, 16]: > 1000 nM
IC50 [2, 17]: 101 nM
IC50 [7, 18]: > 1000 nM
IC50 [7, 19]: 289 nM
IC50 (SK-OV-3; Homo sapiens, SK-OV-3, parental cell line, SRB, n = 3, read-out: SK-OV-3 IC50 ± SD): 278 ± 19 nM
EC50 (A-10 cells; [20]): 5800 nM
EC50 (A-10 cells; Rattus norvegicus, A10, Section VIII Table 1, read-out: EC50 (nM) in A-10 cells (Loss of cellular microtubules)): 5800 nM

SMILES: COc1ccc(N(C)c2nc(C)nc3ccsc23)cc1 [compound 2]
IC50 (SK-OV-3 MDR-1-6/6; Homo sapiens, SK-OV-3, read-out: SK-OV-3 MDR-1-6/6 IC50 ± SD (nM)): 438 ± 58 nM
IC50 ([6]; R2/PCFT4, read-out: PCFT4 (nM) PCFT IC50): 57.6 nM
IC50 ([6]; R2/PCFT4, read-out: PCFT (nM) R2/PCFT4 IC50): 40 nM
IC50 (MDA-MB-435 cancer cells; Homo sapiens, MDA-MB-435, read-out: MDA-MB-435 IC50 ± SD (nM)): 198 ± 23 nM
IC50 ([1]; Homo sapiens, read-out: FRα/PCFT/RFC (nM) KB IC50): 1.13 nM
IC50 ([1]; Homo sapiens, read-out: KB (nM) RFC/FRα/PCFT IC50): 0.34 nM
IC50 (WT βIII cell line; HeLa, read-out: WT βIII IC50 ± SD (nM)): 152 ± 14 nM
IC50 (D4 CHO cells (FRβ); Cricetulus griseus, CHO, read-out: D4 (nM) FRβ IC50): 0.52 nM
IC50 (D4 CHO cells (FRβ); Cricetulus griseus, CHO, read-out: FRβ (nM) D4 IC50): 2.36 nM
IC50 (HeLa; Homo sapiens, HeLa, read-out: HeLa IC50 ± SD (nM)): 186 ± 19 nM
IC50 (RT16 CHO cells (FRα); Cricetulus griseus, RT16, read-out: FRα (nM) R16 IC50): 1.72 nM
IC50 (RT16 CHO cells (FRα); Cricetulus griseus, RT16, read-out: RT16 (nM) FRα IC50): 1.27 nM
IC50 ([2]; Homo sapiens, PC43-10, read-out: PC43-10 (nM) RFC IC50): > 1000 nM
IC50 ([2]; Homo sapiens, PC43-10, read-out: RFC (nM) PC43-10 IC50): > 1000 nM
IC50 ([7]; read-out: R2 (nM) Null IC50): > 1000 nM
IC50 ([7]; read-out: R2 IC50): > 1000 nM
IC50 (SK-OV-3; Homo sapiens, SK-OV-3, read-out: SK-OV-3 IC50 ± SD (nM)): 253 ± 23 nM
EC50 (A-10 cells; Rattus norvegicus, A10, read-out: Microtubule depolymerization (A-10 cells) EC50 ± SD (μM)): 8100 nM

IC50 [1, 10]: 0.48 nM
IC50 [1, 11]: 674 nM
EC50 (A-10 cells; [20]): > 10000 nM
SMILES: CSc1ccc(Nc2nc(C)nc3ccsc23)cc1 [compound 3]
IC50 [6, 8]: > 1000 nM
IC50 [6, 9]: 41.5 nM
IC50 (D4 CHO cells (FRβ); [12]): 0.43 nM
IC50 (D4 CHO cells (FRβ); [13]): > 1000 nM
IC50 (RT16 CHO cells (FRα); [14]): 2.54 nM
IC50 (RT16 CHO cells (FRα); [15]): > 1000 nM
IC50 [2, 16]: > 1000 nM
IC50 [2, 17]: > 1000 nM
IC50 [7, 18]: > 1000 nM
IC50 [7, 19]: > 1000 nM
